# Test results reported in patent US20220304951A1, “ANTICANCER COMPOSITIONS AND METHODS FOR USING SAME” (Lispiro LLC, priority 2021, published 2022).
# Assays:
# Type in all cases: cell-based
# [1] = test system: Fibrosarcoma cells (HT-1080); assay: New fuchsine treatment of human fibrosarcoma cells, H&E staining, light microscopy (Example 2); conditions: new fuchsine 50 uM, 12 hours, H&E stain; corresponds to empty plastic
# Description: (§1) 2 flasks Thermo Scientific Nunc Nunclon Delta Surface 12.5 cm (Cat. No 136196) with McCoy's5A complete medium were seeded with cell culture of CRL1790 (ATCC) and 2 flasks Thermo Scientific Nunc Nunclon Delta Surface 12.5 cm (Cat. No 136196) with DMEM complete medium were seeded with cell culture of HT1080 (ATCC) and were kept at 37 degrees 5% CO2 in CO2 incubator until it reached of 100% confluence (2 days). After reaching of 100% confluence medium with 10% of FBS was changed to the same medium with different concertation of New Fuchsin (0 uM, and 50 uM) (Sigma Cat. No 72200). Flasks were kept in the CO2 incubator 5% CO2, 37-degree C for additional 12 hours. After 12 hours of treatment all flasks were stained by fixed by 10% Formaldehyde and stained by H&E. After completing of the staining protocol the flasks were examined in the light microscope under magnification x100 and multiple pictures were taken using Olympus BX51 microscope and Olympus DP73 digital camera.
# [2] = test system: Human colon carcinoma cells (HT29); assay: New fuchsine treatment of human colon carcinoma cells, H&E staining, light microscopy (Example 1); conditions: 48 hours, H&E stain
# Description: (§2) 4 flasks Thermo Scientific Nunc Nunclon Delta Surface 12.5 cm (Cat.No136196) with McCoy's5A complete medium were seeded with cell culture of CRL1790 (ATCC) and 4 flasks Thermo Scientific Nunc Nunclon Delta Surface 12.5 cm (Cat.No136196) with McCoy's5A complete medium were seeded with cell culture of HT29 (ATCC) and were kept at 37 degrees 5% CO2 in CO2 incubator until it reached of 70% confluence (2 days). After reaching of 70% confluence flasks McCoy's5A medium with 10% of FBS was changed to the same medium with different concertation of new fuchsine (0 uM, 25 uM, 50 uM, 100 uM, 150 uM) (Sigma Cat. No 72200). Flasks were kept in the CO2 incubator 5% CO2, 37-degree C for additional 48 hours. After 48 hours of treatment all flasks were stained by fixed by 10% Formaldehyde and stained by H&E. After completing of the staining protocol the flasks were examined in the light microscope under magnification x100 and multiple pictures were taken using Olympus BX51 microscope and Olympus DP73 digital camera.
# [3] = test system: human colon adenocarcinoma cells (HT29); assay: New fuchsine treatment of HT29 cells, Trypan blue, automatic cell counter (Example 4)
# Description: (§3) The general study methods of study were as follows: HT29 cells were grown in incubator at 37 degrees C. and 5% CO2 until 70% confluence was reached. After reaching of 70% confluence, medium was changed to medium with different concentration of new fuchsine (0 μM, 15 μM, 31 μM, 62 μM, 125 μM and 250 μM). Flasks were kept in the CO2 incubator (5% CO2, 37-degree C) for additional 24 hours. After 24 hours of treatment cells were detached with Trypsin, washed with fresh medium and stained with Trypan blue. Cell viability was examined in automatic cell counter (Invitrogen).
# [4] = test system: Human Cervical carcinoma cell line (HeLa); assay: New fuchsine treatment of HeLa cells, Trypan blue, automatic cell counter (Example 3)
# Description: as §3, with “Hela cells” for “The general study methods of study were as follows: HT29 cells”, “were growing” for “were grown”, “different concentrations” for “different concentration”, “of treatment,” for “of treatment”, “blue. Number of cells and” for “blue. Cell”, “viability were” for “viability was”
# [5] = test system: normal human epithelial like cells (CRL-1790); assay: New fuchsine treatment of normal human epithelial like cells, H&E staining, light microscopy (Example 2); conditions: all tested concentrations (50 uM), 12 hours, H&E stain
# Description: as §1
# [6] = test system: normal human epithelial like cells (CRL-1790); assay: New fuchsine treatment of normal human epithelial like cells, H&E staining, light microscopy (Example 1); conditions: all tested concentrations (25, 50, 100, 150 uM), 48 hours, H&E stain
# Description: as §2
# [7] = new fuchsine 250 uM, 24 hours, Trypan blue
structure (smiles),measurement,setting,value
"CC1=CC(=C(c2ccc(N)c(C)c2)c2ccc(N)c(C)c2)C=CC1=N.Cl [new fuchsine, [4-[bis(4-amino-3-methylphenyl)methylidene]-2-methylcyclohexa-2,5-dien-1-ylidene]azanium; chloride]",toxicity to Fibrosarcoma cells (HT-1080),[1],100%
same,concentration at which first signs of toxicity to colon carcinoma cells (HT29) can be seen,[2],50 µM
same,toxicity to carcinoma cells (HT29),"[2]; new fuchsine 150 uM, corresponds to empty plastic",100%
same,toxicity to human colon adenocarcinoma cells (HT29),"[3]; all tested concentrations (15, 31, 62, 125, 250 μM), 24 hours, Trypan blue viability",did exhibit toxicity
same,toxicity to colon adenocarcinoma cells (HT29),[3]; [7],< 100%
same,"efficacy for colon carcinoma (HT29 cells) compared with cervical carcinoma (HeLa cells), summary",[3]; summary of the examples,much less effective
same,toxicity to human carcinoma cells (HeLa),"[4]; all tested concentrations (15, 31, 62, 125, 250 μM), 24 hours, Trypan blue viability and cell count",exhibited toxicity
same,toxicity to carcinoma cells (HeLa),[4]; [7],100%
same,"cytotoxic effect on cervical carcinoma (HeLa cells), summary",[4]; summary of the examples,"high efficacy, dose dependent cytotoxic effect"
same,visual toxicity to normal human epithelial like cells (CRL-1790),[5],did not exhibit any visual toxicity
same,visual toxicity to normal human epithelial like cells (CRL-1790),[6],did not exhibit any visual toxicity
